Source: patent publication US7696161B2, “Exendin agonist compounds” (Amylin Pharmaceuticals, Inc., priority 1997, dated 2010)

Key:
[1] = target: cyclase (RINm5f membranes); test: Cyclase activation study (cAMP by SPA immunoassay, membranes); format: biochemical; details: cAMP in membranes, 20 minutes incubation at 37° C.
Description: GLP-1(7-36) [NH2] was purchased from Bachem (Torrance, Calif.). All other peptides were prepared using synthesis methods such as those described therein. All chemicals were of the highest commercial grade. The cAMP SPA immunoassay was purchased from Amersham. The radioligands were purchased from New England Nuclear (Boston, Mass.). […] Cells were grown to confluence then harvested and homogenized using on a Polytron homogenizer. Cell homogenates were stored frozen at −70° C. until used. […] Membranes and peptides were combined in […] of assay buffer in 96 well filter-bottom plates (Millipore Corp., Bedford, Mass.). […] Supernatant cAMP contents were quantitated by SPA immunoassay. […] The biological activity of a particular sample was expressed as an EC50 value, calculated as described above.

C57BLKS/J-m-db mice = test: Determination of blood glucose levels in db/db mice; format: in vivo; details: 1 μg subcutaneous, plasma glucose one hour after injection vs baseline

Row | EC50 [1] | Compound | % drop in glucose (C57BLKS/J-m-db mice)
1 | 0.76 nM | CC[C@H](C)[C@H](NC(=O)[C@H](Cc1ccccc1)NC(=O)[C@H](C)NC(=O)[C@H](CCCNC(=N)N)NC(=O)[C@@H](NC(=O)[C@H](C)NC(=O)[C@H](CCC(=O)O)NC(=O)[C@H](CCC(=O)O)NC(=O)[C@H](CCC(=O)O)NC(=O)[C@H](CC(C)C)NC(=O)[C@H](CCC(N)=O)NC(=O)[C@H](CCCCN)NC(=O)[C@H](CO)NC(=O)[C@H](CC(C)C)NC(=O)[C@H](CC(=O)O)NC(=O)[C@H](CO)NC(=O)[C@@H](NC(=O)[C@H](Cc1ccccc1)NC(=O)[C@@H](NC(=O)CNC(=O)[C@H](CCC(=O)O)NC(=O)CNC(=O)[C@@H](N)Cc1c[nH]cn1)[C@@H](C)O)[C@@H](C)O)C(C)C)C(=O)N[C@@H](CCC(=O)O)C(=O)N[C@@H](Cc1ccccc1)C(=O)N[C@@H](CC(C)C)C(=O)N[C@@H](CCCCN)C(=O)N[C@@H](CC(N)=O)C(N)=O [Compound 18] | 50%
2 | 1.11 nM | CC[C@H](C)[C@H](NC(=O)[C@H](Cc1ccccc1)NC(=O)[C@H](CC(C)C)NC(=O)[C@H](CCCNC(=N)N)NC(=O)[C@@H](NC(=O)[C@H](C)NC(=O)[C@H](CCC(=O)O)NC(=O)[C@H](C)NC(=O)[C@H](CCC(=O)O)NC(=O)[C@H](CC(C)C)NC(=O)[C@H](CCC(N)=O)NC(=O)[C@H](CCCCN)NC(=O)[C@H](CO)NC(=O)[C@H](CC(C)C)NC(=O)[C@H](CC(=O)O)NC(=O)[C@H](CO)NC(=O)[C@@H](NC(=O)[C@H](Cc1ccccc1)NC(=O)[C@@H](NC(=O)CNC(=O)[C@H](CCC(=O)O)NC(=O)CNC(=O)[C@@H](N)Cc1c[nH]cn1)[C@@H](C)O)[C@@H](C)O)C(C)C)C(=O)N[C@@H](CCC(=O)O)C(=O)N[C@@H](Cc1ccccc1)C(=O)N[C@@H](CC(C)C)C(=O)N[C@@H](CCCCN)C(=O)N[C@@H](CC(N)=O)C(N)=O [Compound 14] | 54%
3 | 15.6 nM | CC[C@H](C)[C@H](NC(=O)[C@H](Cc1ccccc1)NC(=O)[C@H](CC(C)C)NC(=O)[C@H](CCCNC(=N)N)NC(=O)[C@@H](NC(=O)[C@H](C)NC(=O)[C@H](CCC(=O)O)NC(=O)[C@H](CCC(=O)O)NC(=O)[C@H](CCC(=O)O)NC(=O)[C@H](C)NC(=O)[C@H](CCC(N)=O)NC(=O)[C@H](CCCCN)NC(=O)[C@H](CO)NC(=O)[C@H](CC(C)C)NC(=O)[C@H](CC(=O)O)NC(=O)[C@H](CO)NC(=O)[C@@H](NC(=O)[C@H](Cc1ccccc1)NC(=O)[C@@H](NC(=O)CNC(=O)[C@H](CCC(=O)O)NC(=O)CNC(=O)[C@@H](N)Cc1c[nH]cn1)[C@@H](C)O)[C@@H](C)O)C(C)C)C(=O)N[C@@H](CCC(=O)O)C(=O)N[C@@H](Cc1ccccc1)C(=O)N[C@@H](CC(C)C)C(=O)N[C@@H](CCCCN)C(=O)N[C@@H](CC(N)=O)C(N)=O [Compound 12] | 53%
4 | 5.12 nM | CC[C@H](C)[C@H](NC(=O)[C@H](Cc1ccccc1)NC(=O)[C@H](CC(C)C)NC(=O)[C@H](CCCNC(=N)N)NC(=O)[C@H](C)NC(=O)[C@H](C)NC(=O)[C@H](CCC(=O)O)NC(=O)[C@H](CCC(=O)O)NC(=O)[C@H](CCC(=O)O)NC(=O)[C@H](CC(C)C)NC(=O)[C@H](CCC(N)=O)NC(=O)[C@H](CCCCN)NC(=O)[C@H](CO)NC(=O)[C@H](CC(C)C)NC(=O)[C@H](CC(=O)O)NC(=O)[C@H](CO)NC(=O)[C@@H](NC(=O)[C@H](Cc1ccccc1)NC(=O)[C@@H](NC(=O)CNC(=O)[C@H](CCC(=O)O)NC(=O)CNC(=O)[C@@H](N)Cc1c[nH]cn1)[C@@H](C)O)[C@@H](C)O)C(=O)N[C@@H](CCC(=O)O)C(=O)N[C@@H](Cc1ccccc1)C(=O)N[C@@H](CC(C)C)C(=O)N[C@@H](CCCCN)C(=O)N[C@@H](CC(N)=O)C(N)=O [Compound 16] | 54%
5 | 43.6 nM | CC[C@H](C)[C@H](NC(=O)[C@H](Cc1ccccc1)NC(=O)[C@H](CC(C)C)NC(=O)[C@H](C)NC(=O)[C@@H](NC(=O)[C@H](C)NC(=O)[C@H](CCC(=O)O)NC(=O)[C@H](CCC(=O)O)NC(=O)[C@H](CCC(=O)O)NC(=O)[C@H](CC(C)C)NC(=O)[C@H](CCC(N)=O)NC(=O)[C@H](CCCCN)NC(=O)[C@H](CO)NC(=O)[C@H](CC(C)C)NC(=O)[C@H](CC(=O)O)NC(=O)[C@H](CO)NC(=O)[C@@H](NC(=O)[C@H](Cc1ccccc1)NC(=O)[C@@H](NC(=O)CNC(=O)[C@H](CCC(=O)O)NC(=O)CNC(=O)[C@@H](N)Cc1c[nH]cn1)[C@@H](C)O)[C@@H](C)O)C(C)C)C(=O)N[C@@H](CCC(=O)O)C(=O)N[C@@H](Cc1ccccc1)C(=O)N[C@@H](CC(C)C)C(=O)N[C@@H](CCCCN)C(=O)N[C@@H](CC(N)=O)C(N)=O [Compound 17] | 45%

Further lines, the compound ahead of its results:

Row | Compound | EC50 [1] | % drop in glucose (C57BLKS/J-m-db mice)
6 | CC[C@H](C)[C@H](NC(=O)[C@H](Cc1ccccc1)NC(=O)[C@H](CC(C)C)NC(=O)[C@H](CCCNC(=N)N)NC(=O)[C@@H](NC(=O)[C@H](C)NC(=O)[C@H](CCC(=O)O)NC(=O)[C@H](CCC(=O)O)NC(=O)[C@H](CCC(=O)O)NC(=O)[C@H](CC(C)C)NC(=O)[C@H](C)NC(=O)[C@H](CCCCN)NC(=O)[C@H](CO)NC(=O)[C@H](CC(C)C)NC(=O)[C@H](CC(=O)O)NC(=O)[C@H](CO)NC(=O)[C@@H](NC(=O)[C@H](Cc1ccccc1)NC(=O)[C@@H](NC(=O)CNC(=O)[C@H](CCC(=O)O)NC(=O)CNC(=O)[C@@H](N)Cc1c[nH]cn1)[C@@H](C)O)[C@@H](C)O)C(C)C)C(=O)N[C@@H](CCC(=O)O)C(=O)N[C@@H](Cc1ccccc1)C(=O)N[C@@H](CC(C)C)C(=O)N[C@@H](CCCCN)C(=O)N[C@@H](CC(N)=O)C(N)=O [Compound 11] | 0.48 nM | 40%
7 | CC[C@H](C)[C@H](NC(=O)[C@H](Cc1ccccc1)NC(=O)[C@H](CC(C)C)NC(=O)[C@H](CCCNC(=N)N)NC(=O)[C@@H](NC(=O)[C@H](C)NC(=O)[C@H](CCC(=O)O)NC(=O)[C@H](CCC(=O)O)NC(=O)[C@H](CCC(=O)O)NC(=O)[C@H](CC(C)C)NC(=O)[C@H](CCC(N)=O)NC(=O)[C@H](CCCCN)NC(=O)[C@H](CO)NC(=O)[C@H](CC(C)C)NC(=O)[C@H](CC(=O)O)NC(=O)[C@H](CO)NC(=O)[C@@H](NC(=O)[C@H](C)NC(=O)[C@@H](NC(=O)CNC(=O)[C@H](CCC(=O)O)NC(=O)CNC(=O)[C@@H](N)Cc1c[nH]cn1)[C@@H](C)O)[C@@H](C)O)C(C)C)C(=O)N[C@@H](CCC(=O)O)C(=O)N[C@@H](Cc1ccccc1)C(=O)N[C@@H](CC(C)C)C(=O)N[C@@H](CCCCN)C(=O)N[C@@H](CC(N)=O)C(N)=O [Compound 6] | 79.4 nM | 40%
8 | CC[C@H](C)[C@H](NC(=O)[C@H](Cc1ccccc1)NC(=O)[C@H](CC(C)C)NC(=O)[C@H](CCCNC(=N)N)NC(=O)[C@@H](NC(=O)[C@H](C)NC(=O)[C@H](CCC(=O)O)NC(=O)[C@H](CCC(=O)O)NC(=O)[C@H](CCC(=O)O)NC(=O)[C@H](CC(C)C)NC(=O)[C@H](CCC(N)=O)NC(=O)[C@H](CCCCN)NC(=O)[C@H](CO)NC(=O)[C@H](CC(C)C)NC(=O)[C@H](CC(=O)O)NC(=O)[C@H](CO)NC(=O)[C@@H](NC(=O)[C@H](Cc1ccccc1)NC(=O)[C@@H](NC(=O)CNC(=O)[C@H](CCC(=O)O)NC(=O)[C@H](C)NC(=O)[C@@H](N)Cc1c[nH]cn1)[C@@H](C)O)[C@@H](C)O)C(C)C)C(=O)N[C@@H](CCC(=O)O)C(=O)N[C@@H](Cc1ccccc1)C(=O)N[C@@H](CC(C)C)C(=O)N[C@@H](CCCCN)C(=O)N[C@@H](CC(N)=O)C(N)=O [Compound 4] | 0.22 nM | 27%
9 | CC[C@H](C)[C@H](NC(=O)[C@H](Cc1ccccc1)NC(=O)[C@H](CC(C)C)NC(=O)[C@H](CCCNC(=N)N)NC(=O)[C@@H](NC(=O)[C@H](C)NC(=O)[C@H](CCC(=O)O)NC(=O)[C@H](CCC(=O)O)NC(=O)[C@H](CCC(=O)O)NC(=O)[C@H](CC(C)C)NC(=O)[C@H](CCC(N)=O)NC(=O)[C@H](CCCCN)NC(=O)[C@H](CO)NC(=O)[C@H](CC(C)C)NC(=O)[C@H](CC(=O)O)NC(=O)[C@H](CO)NC(=O)[C@@H](NC(=O)[C@H](Cc1ccccc1)NC(=O)[C@H](C)NC(=O)CNC(=O)[C@H](CCC(=O)O)NC(=O)CNC(=O)[C@@H](N)Cc1c[nH]cn1)[C@@H](C)O)C(C)C)C(=O)N[C@@H](CCC(=O)O)C(=O)N[C@@H](Cc1ccccc1)C(=O)N[C@@H](CC(C)C)C(=O)N[C@@H](CCCCN)C(=O)N[C@@H](CC(N)=O)C(N)=O [Compound 5] | 9.85 nM | 47%
10 | CC[C@H](C)[C@H](NC(=O)[C@H](Cc1ccccc1)NC(=O)[C@H](CC(C)C)NC(=O)[C@H](CCCNC(=N)N)NC(=O)[C@@H](NC(=O)[C@H](C)NC(=O)[C@H](CCC(=O)O)NC(=O)[C@H](CCC(=O)O)NC(=O)[C@H](CCC(=O)O)NC(=O)[C@H](CC(C)C)NC(=O)[C@H](CCC(N)=O)NC(=O)[C@H](CCCCN)NC(=O)[C@H](CO)NC(=O)[C@H](C)NC(=O)[C@H](CC(=O)O)NC(=O)[C@H](CO)NC(=O)[C@@H](NC(=O)[C@H](Cc1ccccc1)NC(=O)[C@@H](NC(=O)CNC(=O)[C@H](CCC(=O)O)NC(=O)CNC(=O)[C@@H](N)Cc1c[nH]cn1)[C@@H](C)O)[C@@H](C)O)C(C)C)C(=O)N[C@@H](CCC(=O)O)C(=O)N[C@@H](Cc1ccccc1)C(=O)N[C@@H](CC(C)C)C(=O)N[C@@H](CCCCN)C(=O)N[C@@H](CC(N)=O)C(N)=O [Compound 8] | 6.8 nM | 44%
